The text below walks through data of patent publication US20240059688A1, “CONOLIDINE ANALOGUES AS SELECTIVE ACKR3 MODULATORS FOR THE TREATMENT OF CANCER” (Luxembourg Institute of Health (LIH), priority 2020, published 2024).

What all share (type): cell-based
One experiment deals with T1, human CXCR4 (Homo sapiens, UniProt P61073).
T1 construct: host or cells: C2C12
The experiment can be described thus: CXCR4 β-arrestin recruitment assay (PathHunter). The conditions noted are these: human CXCR4-C2Cl2 cells, relative to CXCL-12. The procedure, abridged: (§1)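 Agonist mode in PathHunter CHO cells expressing human ACKR3-β-arrestin-2, compounds added in DPBS/1% DMSO for 1.5 hr at 37° C, then detection 1 hr at room temperature, luminescence read. CXCR4 run in C2C12 cells with a 3 hr Cell Plating Reagent 4 preincubation. EC50 and % Emax from three-parameter fits, CXCL-12 as reference agonist; ≥2 independent experiments in duplicate.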

The target in a further experiment is ACKR3 (Homo sapiens, UniProt P25106). The experiment can be described thus: ACKR3 β-arrestin recruitment assay (PathHunter, β-galactosidase complementation). The conditions noted are these: stable human ACKR3-β-arrestin-2-CHO cells; mean ± SEM, at least two independent experiments in duplicate. The procedure, abridged:
as §1
Background: Arrestin recruitment assays detect the binding of arrestin to an activated receptor.

The next experiment concerns the target KOR (Homo sapiens, UniProt P41145). The experiment in a line: KOR calcium mobilization agonist/antagonist screen (CHO-RD-HGA16 cells). Further details: host or cells: CHO-RD-HGA16. The conditions noted are these: single concentration. The procedure:
(§2) Compounds were evaluated for kappa (KOR), mu (MOR), and delta (DOR) opioid receptor agonist and antagonist activity in three individual cell lines overexpressing Gαq16 (CHO-RD-HGA16, Molecular Devices) and the human kappa, mu, and delta opioid receptors, respectively. The day before the assay, cells were plated into 96-well black-walled assay plates at 30,000 cells/well in Ham's F12 supplemented with 10% fetal bovine serum, and 100 units of penicillin and streptomycin. The cells were incubated overnight at 37° C., 5% CO2. Prior to the assay, Calcium 5 dye (Molecular Devices) was reconstituted according to the manufacturer's instructions. The reconstituted dye was diluted 1:40 in pre-warmed (37° C.) assay buffer (1×HBSS, 20 mM HEPES, 2.5 mM probenecid, pH 7.4 at 37° C.). Growth medium was removed and the cells were gently washed with 100 μL of pre-warmed (37° C.) assay buffer. The cells were incubated for 45 minutes at 37° C., 5% CO2 in 200 μL of the diluted Calcium 5 dye. For the agonist screen, a single concentration of each test compound and receptor-specific controls (U69,593, DAMGO, and DPDPE for KOR, MOR, and DOR, respectively) were prepared at 10× the desired final concentration in 1% DMSO/assay buffer, aliquoted into a 96-well polystyrene plate, and warmed to 37° C. After the dye-loading incubation period, pretreatment solution was added to each well (25 μL of 9% DMSO/assay buffer) and, after 15 min, the plate was read with a FlexStation II (Molecular Devices). Calcium-mediated changes in fluorescence were monitored every 1.52 seconds over a 60 second time period, with the FlexStation II adding 50 μL of test compounds at the 19 second time point (excitation at 485 nm, detection at 525 nm). Peak kinetic reduction (SoftMax, Molecular Devices) relative fluorescence units (RFU) were used to calculate % control agonist Emax with the equation % Emax=(test compound RFU/control agonist RFU)×100. For the antagonist screens, the same procedure was followed except that the pretreatment solution consisted of the test compounds (prepared at […] the desired final concentration in 9% DMSO/assay buffer) and the FlexStation added the EC60 concentration (prepared at 10× the desired final concentration in 1% DMSO/assay buffer) of each respective control agonist. Peak RFU were used to calculate % control EC60 inhibition with the equation % inhibition=((EC60 RFU−test compound RFU)/EC60 RFU)×100. When IC50 determinations were made, the same antagonist screen procedure was followed except that cells were pretreated with 8-pt concentration-response curves of the test compounds. Peak RFU were plotted against the log of compound concentration using non-linear regression analysis to generate IC50 values (GraphPad Prism). Each test sample was analyzed in duplicate in two independent experiments.
On the technique in general: Calcium flux is commonly read through the fluorescence of an indicator in the cells.

The next experiment addresses T2, CaV 3.2 (Homo sapiens, UniProt O95180).
T2 construct: expressed in transfected cells
The experiment can be described thus: CaV 3.2 calcium assay in stable human CaV3.2-HEK293 cells. The conditions noted are these: control agonist calcium chloride. The procedure: as §2
Compounds were evaluated for activity at CaV 3.2 using stable human CaV3.2-HEK293 cells and the control agonist calcium chloride. The day before the assay, cells were plated into 96-well black-walled assay plates coated with poly-D-lysine in DMEM-F12 supplemented with 10% fetal bovine serum, 100 units penicillin/streptomycin, and 500 μM sodium pyruvate, and incubated at 37° C., 5% CO2 overnight. Prior to the assay, Calcium 5 dye (Molecular Devices) was reconstituted according to the manufacturer instructions. The reconstituted dye was diluted 1:10 in pre-warmed (37° C.) assay buffer (1×HBSS, […], […], pH 7.4 at 37° C.). The cells were incubated for 45 minutes at 37° C., 5% CO2 in 200 μL of the diluted Calcium 5 dye. Compounds were prepared as described above and the plate was read with a FLIPR Tetra (Molecular Devices). Calcium-mediated changes in fluorescence were monitored every 1 second over a 60 second time period, with the Tetra adding 25 μL of appropriate compound at the 10 second time point (excitation at 470-495 nm, detection at 515-575 nm). […]

A further experiment concerns the target MOR (Homo sapiens, UniProt P35372). The experiment can be described thus: MOR calcium mobilization agonist/antagonist screen (CHO-RD-HGA16 cells). Also on record: host or cells: CHO-RD-HGA16. The conditions noted are these: single concentration. As for the experimental part: as §2
A further experiment has as its target DOR (Homo sapiens, UniProt P41143). The experiment in a line: DOR calcium mobilization agonist/antagonist screen (CHO-RD-HGA16 cells). Also on record: host or cells: CHO-RD-HGA16. The conditions noted are these: single concentration. The procedure:
as §2

DOR, sequence (P41143 whole entry): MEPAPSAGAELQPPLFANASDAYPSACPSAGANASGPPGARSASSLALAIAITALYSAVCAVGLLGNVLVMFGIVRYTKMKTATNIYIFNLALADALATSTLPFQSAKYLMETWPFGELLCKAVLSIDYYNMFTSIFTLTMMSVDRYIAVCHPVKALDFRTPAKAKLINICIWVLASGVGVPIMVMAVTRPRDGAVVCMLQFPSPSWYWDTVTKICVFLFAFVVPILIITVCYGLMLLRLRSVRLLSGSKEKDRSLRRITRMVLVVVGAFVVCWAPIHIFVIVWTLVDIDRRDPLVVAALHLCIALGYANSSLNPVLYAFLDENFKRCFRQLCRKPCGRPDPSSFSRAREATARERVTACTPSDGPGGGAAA
KOR, sequence (P41145 whole entry): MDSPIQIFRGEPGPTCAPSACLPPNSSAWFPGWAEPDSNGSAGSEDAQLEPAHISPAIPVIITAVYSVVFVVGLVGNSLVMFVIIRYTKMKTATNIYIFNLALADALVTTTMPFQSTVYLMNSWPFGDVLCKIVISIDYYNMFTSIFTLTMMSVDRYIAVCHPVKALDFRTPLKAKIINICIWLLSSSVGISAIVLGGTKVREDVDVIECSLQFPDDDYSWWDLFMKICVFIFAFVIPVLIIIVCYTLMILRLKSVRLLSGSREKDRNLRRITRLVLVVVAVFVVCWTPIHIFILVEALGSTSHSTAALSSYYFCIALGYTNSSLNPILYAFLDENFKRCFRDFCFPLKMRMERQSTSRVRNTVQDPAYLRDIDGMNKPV
MOR, sequence (P35372 whole entry): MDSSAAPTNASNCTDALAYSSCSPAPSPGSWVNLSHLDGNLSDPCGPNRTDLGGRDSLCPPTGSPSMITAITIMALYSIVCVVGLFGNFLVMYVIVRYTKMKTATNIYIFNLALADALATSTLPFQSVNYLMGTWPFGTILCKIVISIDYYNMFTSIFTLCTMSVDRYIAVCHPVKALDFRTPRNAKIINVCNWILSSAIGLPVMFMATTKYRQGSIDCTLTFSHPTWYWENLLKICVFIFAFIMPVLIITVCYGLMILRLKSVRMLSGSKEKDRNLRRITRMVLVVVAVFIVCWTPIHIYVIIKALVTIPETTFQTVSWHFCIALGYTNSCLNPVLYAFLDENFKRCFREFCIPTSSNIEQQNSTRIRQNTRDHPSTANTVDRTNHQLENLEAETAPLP
T1 sequence (P61073 whole entry): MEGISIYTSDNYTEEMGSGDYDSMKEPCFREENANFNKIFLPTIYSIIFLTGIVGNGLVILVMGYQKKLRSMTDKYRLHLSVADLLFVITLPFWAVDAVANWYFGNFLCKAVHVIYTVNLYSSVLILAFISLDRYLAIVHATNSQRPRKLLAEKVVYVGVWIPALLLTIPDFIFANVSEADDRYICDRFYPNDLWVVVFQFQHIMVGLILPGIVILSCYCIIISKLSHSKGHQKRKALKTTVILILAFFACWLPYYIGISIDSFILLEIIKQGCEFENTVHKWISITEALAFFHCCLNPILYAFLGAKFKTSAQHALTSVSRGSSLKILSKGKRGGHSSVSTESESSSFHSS
T2 sequence (O95180 whole entry): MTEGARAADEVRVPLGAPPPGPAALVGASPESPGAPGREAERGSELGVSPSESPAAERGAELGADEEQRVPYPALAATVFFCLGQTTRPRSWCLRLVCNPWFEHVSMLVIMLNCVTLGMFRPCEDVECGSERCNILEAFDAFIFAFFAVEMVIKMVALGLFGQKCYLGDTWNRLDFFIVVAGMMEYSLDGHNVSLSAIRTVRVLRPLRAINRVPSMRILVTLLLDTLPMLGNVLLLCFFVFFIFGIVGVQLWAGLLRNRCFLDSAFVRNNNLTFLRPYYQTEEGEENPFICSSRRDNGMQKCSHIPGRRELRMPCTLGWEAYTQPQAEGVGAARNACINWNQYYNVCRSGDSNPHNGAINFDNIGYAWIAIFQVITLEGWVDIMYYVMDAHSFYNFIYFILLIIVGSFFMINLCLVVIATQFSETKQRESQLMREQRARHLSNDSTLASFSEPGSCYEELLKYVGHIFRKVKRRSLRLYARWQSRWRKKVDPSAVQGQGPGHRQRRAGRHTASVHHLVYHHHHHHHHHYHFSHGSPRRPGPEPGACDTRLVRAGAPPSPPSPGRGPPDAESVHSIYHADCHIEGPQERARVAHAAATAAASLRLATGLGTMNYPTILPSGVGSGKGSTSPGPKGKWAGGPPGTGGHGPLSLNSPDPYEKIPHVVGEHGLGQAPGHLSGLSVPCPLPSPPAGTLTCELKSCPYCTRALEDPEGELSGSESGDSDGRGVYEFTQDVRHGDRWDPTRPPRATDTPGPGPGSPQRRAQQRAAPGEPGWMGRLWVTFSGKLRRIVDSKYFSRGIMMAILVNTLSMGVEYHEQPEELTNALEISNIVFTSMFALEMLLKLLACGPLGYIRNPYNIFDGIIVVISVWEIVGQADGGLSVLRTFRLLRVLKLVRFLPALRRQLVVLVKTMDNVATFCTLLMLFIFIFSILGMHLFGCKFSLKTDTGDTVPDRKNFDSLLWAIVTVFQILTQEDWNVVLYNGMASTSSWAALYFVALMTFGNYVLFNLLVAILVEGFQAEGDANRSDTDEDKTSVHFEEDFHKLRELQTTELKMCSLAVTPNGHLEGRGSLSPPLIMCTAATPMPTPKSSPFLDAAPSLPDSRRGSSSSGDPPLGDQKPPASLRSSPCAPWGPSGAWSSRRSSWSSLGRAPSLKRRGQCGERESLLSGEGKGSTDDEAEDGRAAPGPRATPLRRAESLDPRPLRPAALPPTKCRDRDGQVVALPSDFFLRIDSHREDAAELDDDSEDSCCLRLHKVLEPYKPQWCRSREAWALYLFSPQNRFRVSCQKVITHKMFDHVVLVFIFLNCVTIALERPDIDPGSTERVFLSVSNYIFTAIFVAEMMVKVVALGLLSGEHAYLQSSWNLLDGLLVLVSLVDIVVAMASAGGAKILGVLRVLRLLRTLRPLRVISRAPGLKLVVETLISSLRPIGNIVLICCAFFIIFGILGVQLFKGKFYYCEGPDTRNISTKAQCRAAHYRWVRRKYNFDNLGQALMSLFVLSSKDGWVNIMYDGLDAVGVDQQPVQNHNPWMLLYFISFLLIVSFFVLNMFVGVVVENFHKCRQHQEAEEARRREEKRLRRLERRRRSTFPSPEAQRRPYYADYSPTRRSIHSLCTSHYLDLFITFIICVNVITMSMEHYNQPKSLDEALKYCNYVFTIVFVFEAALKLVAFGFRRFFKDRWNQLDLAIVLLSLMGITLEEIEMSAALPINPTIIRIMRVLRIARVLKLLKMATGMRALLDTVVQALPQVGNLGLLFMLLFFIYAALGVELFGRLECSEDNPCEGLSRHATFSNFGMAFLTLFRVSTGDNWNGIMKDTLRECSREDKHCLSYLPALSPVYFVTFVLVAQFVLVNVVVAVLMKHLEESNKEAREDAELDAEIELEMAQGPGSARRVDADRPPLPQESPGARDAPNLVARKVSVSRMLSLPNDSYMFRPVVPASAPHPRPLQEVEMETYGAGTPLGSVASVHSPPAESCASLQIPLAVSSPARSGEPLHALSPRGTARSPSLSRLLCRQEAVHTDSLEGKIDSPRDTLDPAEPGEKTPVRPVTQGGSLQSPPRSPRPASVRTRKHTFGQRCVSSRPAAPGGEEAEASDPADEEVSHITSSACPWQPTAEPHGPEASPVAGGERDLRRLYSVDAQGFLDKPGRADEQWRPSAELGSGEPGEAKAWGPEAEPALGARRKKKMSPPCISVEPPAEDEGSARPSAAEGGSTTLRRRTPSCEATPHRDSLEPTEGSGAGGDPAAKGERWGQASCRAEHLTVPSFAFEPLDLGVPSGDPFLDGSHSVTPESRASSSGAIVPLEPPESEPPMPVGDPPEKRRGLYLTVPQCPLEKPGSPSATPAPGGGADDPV
ACKR3, sequence (P25106 whole entry): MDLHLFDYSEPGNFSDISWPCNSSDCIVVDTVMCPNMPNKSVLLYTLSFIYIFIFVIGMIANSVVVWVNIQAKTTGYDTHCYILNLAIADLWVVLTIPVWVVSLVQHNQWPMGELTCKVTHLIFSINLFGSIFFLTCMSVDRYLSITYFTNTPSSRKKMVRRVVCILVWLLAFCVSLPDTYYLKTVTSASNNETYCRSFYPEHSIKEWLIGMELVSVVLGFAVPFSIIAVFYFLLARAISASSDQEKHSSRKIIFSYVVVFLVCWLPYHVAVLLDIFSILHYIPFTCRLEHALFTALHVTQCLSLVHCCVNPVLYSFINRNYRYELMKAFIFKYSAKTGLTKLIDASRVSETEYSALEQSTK

As for `O=C(c1cc2ccccc2[nH]1)C1CCN(Cc2ccccc2)CC1` [WW-18, (1-Benzylpiperidin-4-yl)(1H-indol-2-yl)methanone], the “CXCR4 β-arrestin % CXCL-12Emax (n = 2)” value on human CXCR4 was 8%. In addition, on ACKR3, the concentration for a half-maximal effect (EC50) was more than 10 µM. Besides, the Emax on KOR (CHO-RD-HGA16, agonist screen, control agonist U69,593) is 0%; at MOR (CHO-RD-HGA16, agonist screen, control agonist DAMGO), 0%; on DOR (CHO-RD-HGA16, agonist screen, control agonist DPDPE), 0%. The “KOR Calcium % U69, 593 Inhibition” value at KOR (antagonist screen, vs EC60 of U69,593) worked out at 8%. Moreover, the “CaV 3.2 % CaCl2 Inhibition” value at CaV 3.2 is listed as −2%. Besides, at MOR (antagonist screen, vs EC60 of DAMGO), the “MOR Calcium % DAMGO Inhibition” value stood at 2%. Further, the “DOR Calcium % DPDPE Inhibition” value on DOR (antagonist screen, vs EC60 of DPDPE) is reported as 6%.

By EC50 is commonly meant the concentration needed to bring the measured effect to its halfway point. As usually defined, the Emax is the maximal effect, on the per cent scale that the assay sets.
